Laboratory results taken from ChEMBL document CHEMBL1153994.

How the values were obtained:
[1] = target: T1, Phospholipase D1 (Homo sapiens, UniProt Q13393); assay: Inhibition of PLD1 in human Calu1 cells; assay type: cell-based, Calu-1
T1 sequence (Q13393 whole entry): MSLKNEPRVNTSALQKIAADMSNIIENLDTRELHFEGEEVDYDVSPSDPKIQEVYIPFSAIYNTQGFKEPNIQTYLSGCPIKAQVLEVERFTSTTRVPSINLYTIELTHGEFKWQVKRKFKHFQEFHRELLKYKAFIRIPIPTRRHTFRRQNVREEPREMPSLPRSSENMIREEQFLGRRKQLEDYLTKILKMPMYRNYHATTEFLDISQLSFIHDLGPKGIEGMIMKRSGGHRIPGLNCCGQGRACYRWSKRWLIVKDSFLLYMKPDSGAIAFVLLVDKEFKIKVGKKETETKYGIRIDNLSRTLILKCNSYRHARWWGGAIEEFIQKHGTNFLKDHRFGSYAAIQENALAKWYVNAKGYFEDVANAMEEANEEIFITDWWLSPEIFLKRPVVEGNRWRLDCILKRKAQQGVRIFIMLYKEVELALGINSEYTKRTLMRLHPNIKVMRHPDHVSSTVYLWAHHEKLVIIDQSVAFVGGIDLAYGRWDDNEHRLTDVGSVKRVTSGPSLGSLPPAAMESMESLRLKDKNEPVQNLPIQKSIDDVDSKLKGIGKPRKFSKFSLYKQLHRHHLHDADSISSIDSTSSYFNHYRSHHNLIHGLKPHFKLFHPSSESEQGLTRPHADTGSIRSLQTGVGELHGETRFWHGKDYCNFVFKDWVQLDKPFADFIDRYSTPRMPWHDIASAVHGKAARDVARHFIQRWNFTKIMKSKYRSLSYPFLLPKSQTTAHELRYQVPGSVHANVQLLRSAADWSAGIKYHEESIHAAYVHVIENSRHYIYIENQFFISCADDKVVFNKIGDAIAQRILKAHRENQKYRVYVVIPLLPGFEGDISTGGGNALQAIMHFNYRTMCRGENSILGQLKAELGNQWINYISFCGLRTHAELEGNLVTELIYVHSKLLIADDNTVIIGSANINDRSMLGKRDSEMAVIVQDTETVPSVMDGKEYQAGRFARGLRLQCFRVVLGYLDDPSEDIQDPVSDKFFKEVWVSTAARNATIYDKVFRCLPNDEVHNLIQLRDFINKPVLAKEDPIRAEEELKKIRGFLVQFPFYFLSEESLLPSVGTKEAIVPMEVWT

[2] = target: Phospholipase D2 (Homo sapiens, UniProt O14939); assay: Inhibition of GFP-labeled PLD2 in human HEK293 cells; assay type: cell-based
Sequence of Phospholipase D2 (O14939 whole entry): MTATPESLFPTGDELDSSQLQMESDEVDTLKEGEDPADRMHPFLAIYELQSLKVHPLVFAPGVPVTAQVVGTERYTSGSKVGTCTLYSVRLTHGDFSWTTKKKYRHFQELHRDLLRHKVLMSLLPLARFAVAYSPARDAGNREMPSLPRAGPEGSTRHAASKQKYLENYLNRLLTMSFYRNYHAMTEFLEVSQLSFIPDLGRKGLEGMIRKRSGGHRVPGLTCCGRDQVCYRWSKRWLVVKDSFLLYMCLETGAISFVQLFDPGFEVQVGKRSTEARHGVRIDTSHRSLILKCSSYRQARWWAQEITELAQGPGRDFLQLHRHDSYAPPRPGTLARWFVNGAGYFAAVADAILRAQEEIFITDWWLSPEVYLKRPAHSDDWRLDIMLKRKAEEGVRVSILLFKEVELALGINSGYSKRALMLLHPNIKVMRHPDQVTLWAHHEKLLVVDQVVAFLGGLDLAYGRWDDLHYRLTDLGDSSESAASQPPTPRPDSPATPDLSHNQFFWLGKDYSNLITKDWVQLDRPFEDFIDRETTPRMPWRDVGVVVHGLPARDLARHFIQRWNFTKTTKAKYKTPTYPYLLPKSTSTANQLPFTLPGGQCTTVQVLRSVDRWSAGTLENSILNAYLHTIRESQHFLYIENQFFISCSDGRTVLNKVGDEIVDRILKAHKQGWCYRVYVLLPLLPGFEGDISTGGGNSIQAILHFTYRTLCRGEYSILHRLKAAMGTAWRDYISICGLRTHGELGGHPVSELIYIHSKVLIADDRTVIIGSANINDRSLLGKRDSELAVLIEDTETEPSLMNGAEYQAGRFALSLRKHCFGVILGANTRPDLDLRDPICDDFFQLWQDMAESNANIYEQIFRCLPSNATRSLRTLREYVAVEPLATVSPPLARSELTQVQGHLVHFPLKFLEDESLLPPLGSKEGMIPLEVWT

[3] = tested on: HEK293; assay: Selectivity for PLD1 in human Calu1 cells over GFP-labeled PLD2 in human HEK293 cells; assay type: cell-based

Row | Compound | IC50 [1] [nM] | IC50 [2] [nM] | fold change (FC) [3]
1 | COc1cc(C(=O)NCCN2CCC3(CC2)C(=O)NCN3c2ccccc2)ccc1N | 5900 | 550 | 
2 | O=C(NCCN1CCC2(CC1)C(=O)NCN2c1ccccc1)c1cc2ccccc2s1 | 150 | 30 | 
3 | O=C(NCCN1CCC2(CC1)C(=O)NCN2c1ccccc1)c1ccc2ccccc2c1 |  |  | 9
4 | C[C@@H](CN1CCC2(CC1)C(=O)NCN2c1ccccc1)NC(=O)[C@H]1C[C@@H]1c1ccccc1 | 2600 | 30000 | 
5 | O=C(NCCN1CCC2(CC1)C(=O)NCN2c1ccccc1)[C@H]1C[C@@H]1c1ccccc1 (relative stereo) | > 20000 | > 20000 | 
6 | O=C(NCCN1CCC(n2c(=O)[nH]c3ccccc32)CC1)c1ccc2ccccc2c1 |  |  | > 1700
7 | Cc1cccc(C(=O)N[C@@H](C)CN2CCC3(CC2)C(=O)NCN3c2ccccc2)c1 | 3400 | 27000 | 
8 | O=C(C#Cc1ccccc1)NCCN1CCC2(CC1)C(=O)NCN2c1ccccc1 | 2100 | 1600 | 
9 | O=C(NCCN1CCC2(CC1)C(=O)NCN2c1ccccc1)c1cnc2ccccc2n1 | > 20000 | > 20000 | 
10 | C[C@@H](CN1CCC2(CC1)C(=O)NCN2c1ccccc1)NC(=O)c1ccc(F)c(F)c1 | 150 | 200 | 
